Measured values reported in US12655116B2, “Substituted isophthalic acid diamides” (Bayer Aktiengesellschaft, priority 2020, dated 2026).

Columns and labels:
[1] = test system: ABUTH; experiment: Pre-emergence herbicidal action against ABUTH; assay type: in vivo, Abutilon theophrasti
Summary of the method: (§1)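 Herbicidal effect was assessed 3 weeks after treatment by visual comparison with untreated controls, 100% denoting dead plants. Aqueous WP or EC preparations had been applied at 600 to 800 l/ha with 0.2% wetting agent to the soil covering freshly sown seeds.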

[2] = test system: ALOMY; experiment: Pre-emergence herbicidal action against ALOMY; assay type: in vivo, Alopecurus myosuroides; settings: 80 g/ha, pre-emergence, scored visually after 3 weeks vs untreated controls (100% = plants have died, 0% = like control plants)
Summary of the method: as §1

[3] = test system: AMARE; experiment: Pre-emergence herbicidal action against AMARE; assay type: in vivo, Amaranthus retroflexus
Summary of the method: as §1

[4] = test system: AVEFA; experiment: Pre-emergence herbicidal action against AVEFA; assay type: in vivo, Avena fatua; settings: 80 g/ha, pre-emergence
Summary of the method: as §1

[5] = test system: ECHCG; experiment: Pre-emergence herbicidal action against ECHCG; assay type: in vivo, Echinochloa crus-galli; settings: 80 g/ha
Summary of the method: as §1

[6] = test system: HORMU; experiment: Pre-emergence herbicidal action against HORMU; assay type: in vivo, Hordeum murinum; settings: 80 g/ha, pre-emergence
Summary of the method: as §1

[7] = test system: LOLRI; experiment: Pre-emergence herbicidal action against LOLRI; assay type: in vivo, Lolium rigidum; settings: 80 g/ha
Summary of the method: as §1

[8] = test system: MATIN; experiment: Pre-emergence herbicidal action against MATIN; assay type: in vivo, Matricaria inodora
Summary of the method: as §1

[9] = test system: PHBPU; experiment: Pre-emergence herbicidal action against PHBPU; assay type: in vivo, Pharbitis purpurea; settings: dosage 80 g/ha
Summary of the method: as §1

[10] = test system: POLCO; experiment: Pre-emergence herbicidal action against POLCO; assay type: in vivo, Polygonum convolvulus; settings: dosage 80 g/ha
Summary of the method: as §1

[11] = test system: SETVI; experiment: Pre-emergence herbicidal action against SETVI; assay type: in vivo, Setaria viridis; settings: dosage 80 g/ha
Summary of the method: as §1

[12] = test system: STEME; experiment: Pre-emergence herbicidal action against STEME; assay type: in vivo, Stellaria media
Summary of the method: as §1

[13] = test system: VERPE; experiment: Pre-emergence herbicidal action against VERPE; assay type: in vivo, Veronica persica; settings: dosage 80 g/ha
Summary of the method: as §1

[14] = test system: VIOTR; experiment: Pre-emergence herbicidal action against VIOTR; assay type: in vivo, Viola tricolor
Summary of the method: as §1

[15] = test system: DIGSA; experiment: Pre-emergence herbicidal action against DIGSA; assay type: in vivo, Digitaria sanguinalis
Summary of the method: as §1

[16] = test system: ABUTH; experiment: Post-emergence herbicidal action against ABUTH; assay type: in vivo, Abutilon theophrasti; settings: visual assessment about 3 weeks after treatment vs untreated controls
Summary of the method: (§2)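 Post-emergence greenhouse test; one-leaf stage, 2–3 wk post-sowing, sandy loam. Foliar spray of WP/EC in water, 600–800 l/ha, +0.2% wetting agent. Visual % action at ~3 wk vs untreated (100% = plants dead).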

[17] = test system: ALOMY; experiment: Post-emergence herbicidal action against ALOMY; assay type: in vivo, Alopecurus myosuroides; settings: dosage 20 g/ha, visual assessment about 3 weeks after treatment vs untreated controls
Summary of the method: as §2

[18] = test system: AMARE; experiment: Post-emergence herbicidal action against AMARE; assay type: in vivo, Amaranthus retroflexus; settings: 20 g/ha, visual assessment about 3 weeks after treatment, 100% = plants have died, 0% = like control plants
Summary of the method: as §2

[19] = test system: AVEFA; experiment: Post-emergence herbicidal action against AVEFA; assay type: in vivo, Avena fatua; settings: 20 g/ha, visual assessment about 3 weeks after treatment, 100% = plants have died, 0% = like control plants
Summary of the method: as §2

[20] = test system: ECHCG; experiment: Post-emergence herbicidal action against ECHCG; assay type: in vivo, Echinochloa crus-galli
Summary of the method: as §2

[21] = test system: HORMU; experiment: Post-emergence herbicidal action against HORMU; assay type: in vivo, Hordeum murinum; settings: dosage 20 g/ha
Summary of the method: as §2

[22] = test system: MATIN; experiment: Post-emergence herbicidal action against MATIN; assay type: in vivo, Matricaria inodora; settings: dosage 20 g/ha
Summary of the method: as §2

[23] = test system: PHBPU; experiment: Post-emergence herbicidal action against PHBPU; assay type: in vivo, Pharbitis purpurea
Summary of the method: as §2

[24] = test system: SETVI; experiment: Post-emergence herbicidal action against SETVI; assay type: in vivo, Setaria viridis
Summary of the method: as §2

[25] = test system: STEME; experiment: Post-emergence herbicidal action against STEME; assay type: in vivo, Stellaria media
Summary of the method: as §2

[26] = test system: VERPE; experiment: Post-emergence herbicidal action against VERPE; assay type: in vivo, Veronica persica; settings: 20 g/ha
Summary of the method: as §2

[27] = test system: VIOTR; experiment: Post-emergence herbicidal action against VIOTR; assay type: in vivo, Viola tricolor
Summary of the method: as §2

[28] = test system: DIGSA; experiment: Post-emergence herbicidal action against DIGSA; assay type: in vivo, Digitaria sanguinalis; settings: for Post-emergence action against DIGSA: 20 g/ha
Summary of the method: as §2

[29] = test system: POLCO; experiment: Post-emergence herbicidal action against POLCO; assay type: in vivo, Polygonum convolvulus; settings: dosage 20 g/ha
Procedure: Seeds of monocotyledonous and dicotyledonous weed and crop plants are laid out in sandy loam soil in wood-fiber pots, covered with soil and cultivated in a greenhouse under good growth conditions. 2 to 3 weeks after sowing, the test plants are treated at the one-leaf stage. The compounds of the invention, formulated in the form of wettable powders (WP) or as emulsion concentrates (EC), are then sprayed onto the green parts of the plants in the form of an aqueous suspension or emulsion at a water application rate equivalent to 600 to 800 l/ha, with addition of 0.2% wetting agent. After the test plants have been left to stand in the greenhouse under optimal growth conditions for about 3 weeks, the action of the preparations is assessed visually in comparison to untreated controls (herbicidal action in percent (%): 100% activity=the plants have died, 0% activity=like control plants). […] The tables below illustrate, in an illustrative manner, the post-emergence herbicidal action of the compounds of the invention, the herbicidal activity being stated in percent.

[30] = 80 g/ha, scored visually after 3 weeks vs untreated controls (100% = plants have died, 0% = like control plants)

In the case of `CCNC(=O)c1c(C(F)F)ccc(C(=O)Nc2nnnn2CC)c1SC` [Example 2-88], the “Pre-emergence action against ABUTH (herbicidal activity)” value [1, 30] is reported as 100%, the “Pre-emergence action against ABUTH (herbicidal activity in percent)” value ([1]; dosage 20 g/ha, scored visually after 3 weeks vs untreated controls, 100% = plants have died, 0% = like control plants) is reported as 100% and the “Pre-emergence action against ALOMY (herbicidal activity)” value [2] is reported as 90%. The “Pre-emergence action against AMARE in %” value ([3]; 20 g/ha, scored visually after 3 weeks vs untreated controls, 100% = plants have died, 0% = like control plants) was 100%, the “Pre-emergence action against AMARE in %” value [3, 30] was 100% and the “Pre-emergence action against AVEFA in %” value [4] was 90%. For the same compound, the “Pre-emergence action against ECHCG in %” value [5] was 100%, the “Pre-emergence action against HORMU in %” value [6] was 80% and the “Pre-emergence action against LOLRI in %” value [7] was 80%. The “Pre-emergence action against MATIN in %” value ([8]; dosage 20 g/ha) was 100%, the “Pre-emergence action against MATIN in %” value ([8]; dosage 80 g/ha) was 100% and the “Pre-emergence action against PHBPU in %” value [9] was 90%. The “Pre-emergence action against POLCO in %” value [10] was 90%, the “Pre-emergence action against SETVI in %” value [11] was 100% and the “Pre-emergence action against STEME in %” value ([12]; dosage 20 g/ha) was 100%. The “Pre-emergence action against STEME in %” value ([12]; dosage 80 g/ha) was 100%, the “Pre-emergence action against VERPE in %” value [13] was 100% and the “Pre-emergence action against VIOTR in %” value ([14]; dosage 20 g/ha) was 100%. For the same compound, the “Pre-emergence action against VIOTR in %” value ([14]; dosage 80 g/ha) was 100%, the “Pre-emergence action against DIGSA in %” value ([15]; dosage 20 g/ha) was 100% and the “Pre-emergence action against DIGSA in %” value ([15]; dosage 80 g/ha) was 100%. For the same compound, the “Post-emergence action against ABUTH in %” value ([16]; dosage 5 g/ha) was 90%, the “Post-emergence action against ABUTH in %” value ([16]; dosage 20 g/ha) was 90% and the “Post-emergence action against ALOMY in %” value [17] was 80%. The “Post-emergence action at 20 g/ha against AMARE in %” value [18] was 90%, the “Post-emergence action at 20 g/ha against AVEFA in %” value [19] was 80% and the “Post-emergence action against ECHCG in %” value ([20]; dosage 5 g/ha) was 80%. The “Post-emergence action against ECHCG in %” value ([20]; dosage 20 g/ha) was 80%, the “Post-emergence action against HORMU in %” value [21] was 80% and the “Post-emergence action against MATIN in %” value [22] was 80%. For the same compound, the “Post-emergence action against PHBPU in %” value ([23]; dosage 5 g/ha) was 80%, the “Post-emergence action against PHBPU in %” value ([23]; dosage 20 g/ha) was 90% and the “Post-emergence action against SETVI in %” value ([24]; dosage 5 g/ha) was 90%. The “Post-emergence action against SETVI in %” value ([24]; dosage 20 g/ha) was 100%, the “Post-emergence action against STEME in %” value ([25]; 20 g/ha) was 100% and the “Post-emergence action against STEME in %” value ([25]; dosage 5 g/ha) was 90%. For the same compound, the “Post-emergence action against VERPE in %” value [26] was 80%, the “Post-emergence action against VIOTR in %” value ([27]; 5 g/ha) was 80% and the “Post-emergence action against VIOTR in %” value ([27]; 20 g/ha) was 90%. The “Post-emergence action against DIGSA in %” value ([28]; 5 g/ha) was 90% and the “Post-emergence action against DIGSA” value [28] was 90%.

For `CCNC(=O)c1c(Br)ccc(C(=O)Nc2nnc(C)o2)c1Cl` [Example 6-141], the “Pre-emergence action against ALOMY (herbicidal activity)” value [2] was 90%, the “Pre-emergence action against AMARE in %” value [3, 30] was 100% and the “Pre-emergence action against AVEFA in %” value [4] was 80%. The “Pre-emergence action against ECHCG in %” value [5] was 90%, the “Pre-emergence action against MATIN in %” value ([8]; dosage 80 g/ha) was 80% and the “Pre-emergence action against DIGSA in %” value ([15]; dosage 20 g/ha) was 90%. For the same compound, the “Pre-emergence action against DIGSA in %” value ([15]; dosage 80 g/ha) was 100%, the “Post-emergence action against ABUTH in %” value ([16]; dosage 20 g/ha) was 80% and the “Post-emergence action against ALOMY in %” value [17] was 90%. For the same compound, the “Post-emergence action at 20 g/ha against AMARE in %” value [18] was 100%, the “Post-emergence action against ECHCG in %” value ([20]; dosage 20 g/ha) was 80% and the “Post-emergence action against POLCO in %” value [29] was 80%. For the same compound, the “Post-emergence action against VIOTR in %” value ([27]; 20 g/ha) was 80% and the “Post-emergence action against DIGSA” value [28] was 80%.
